# Source: US20090136570A1, “Taste-Masked Tablets and Granules” (priority 2006, published 2009)
# Assay: Hygroscopicity, VTI vapor sorption analyzer
# Type: physicochemical
# Protocol: Hygroscopicity data was obtained on a VTI Symmetrical Vapor Sorption Analyzer Model SGA-1. Data was collected at room temperature from 5-95% relative humidity and back, 5% relative humidity change per step. Equilibrium conditions were 0.01 weight percent change in 5 minutes with a maximum equilibration time of 180 minutes. […] When equilibrated back down to 5% RH, the material returned back to approximately its dry weight.
smiles,measurement,setting,value
Cc1nnc(C(=O)NC(C)(C)c2nc(C(=O)NCc3ccc(F)cc3)c(O)c(=O)n2C)o1,weight increase when equilibrated at 95% RH,95% RH at 25° C.,1.8%
same,XRPD analysis of the material after the hygroscopicity experiment (phase stability),after 5-95% relative humidity cycle at room temperature,had not changed phases
